In publication PMC11408249, “Non-invasive in vivo imaging of changes in Collagen III turnover in myocardial fibrosis” (npj Imaging, 2024):
Residues, ends and D or L forms follow the SMILES beside them. *: point of attachment. DOTA = O=C(O)CN1CCN(CC(=O)O)CCN(CC(=O)*)CCN(CC(=O)O)CC1

Legend:
COL3 [1] = biological target: T1, COL3 (Homo sapiens, UniProt P02461); assay: Eu(III) time resolved fluorescence (TRF) plate binding assay on immobilised COL3; conditions: immobilised COL3, probe up to 15 µM
T1 sequence (P02461 154-1221 limits assumed): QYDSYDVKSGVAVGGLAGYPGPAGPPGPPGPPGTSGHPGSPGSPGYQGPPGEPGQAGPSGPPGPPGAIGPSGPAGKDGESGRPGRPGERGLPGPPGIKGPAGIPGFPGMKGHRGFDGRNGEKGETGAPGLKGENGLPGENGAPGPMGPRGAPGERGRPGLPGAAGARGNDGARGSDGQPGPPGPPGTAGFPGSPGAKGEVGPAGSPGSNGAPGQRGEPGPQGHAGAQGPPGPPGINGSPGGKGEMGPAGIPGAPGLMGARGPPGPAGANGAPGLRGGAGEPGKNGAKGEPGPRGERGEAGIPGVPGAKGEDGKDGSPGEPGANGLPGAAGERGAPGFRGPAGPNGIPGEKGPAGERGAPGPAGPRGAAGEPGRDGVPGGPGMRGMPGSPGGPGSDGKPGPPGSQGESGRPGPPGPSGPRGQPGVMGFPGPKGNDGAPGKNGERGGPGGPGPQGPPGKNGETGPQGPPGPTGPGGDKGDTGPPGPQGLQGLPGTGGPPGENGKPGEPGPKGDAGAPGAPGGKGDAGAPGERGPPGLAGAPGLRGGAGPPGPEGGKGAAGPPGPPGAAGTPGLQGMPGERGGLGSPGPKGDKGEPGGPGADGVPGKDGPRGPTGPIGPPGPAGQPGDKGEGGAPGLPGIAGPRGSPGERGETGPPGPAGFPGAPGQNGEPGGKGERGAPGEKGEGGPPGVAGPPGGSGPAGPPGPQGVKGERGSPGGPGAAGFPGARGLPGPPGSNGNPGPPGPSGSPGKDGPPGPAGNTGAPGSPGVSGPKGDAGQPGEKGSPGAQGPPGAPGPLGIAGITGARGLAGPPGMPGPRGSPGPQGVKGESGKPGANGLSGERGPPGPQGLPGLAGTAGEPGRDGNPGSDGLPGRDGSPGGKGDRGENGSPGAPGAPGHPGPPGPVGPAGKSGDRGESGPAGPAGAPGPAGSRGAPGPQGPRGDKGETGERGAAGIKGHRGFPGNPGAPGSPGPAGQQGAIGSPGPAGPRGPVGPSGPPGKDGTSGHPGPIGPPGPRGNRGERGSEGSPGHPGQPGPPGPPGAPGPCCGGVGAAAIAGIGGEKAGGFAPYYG
Protocol: The protocol to assess the binding affinity of the Eu(III)-labelled collagen probes to COL3 has been optimised previously. Such an assay is based on the Eu(III) TRF which detects the amount of Eu(III)-labelled probes that bind to COL3 immobilised on a multi-well plate. The assay was used to measure the COL3 binding affinity of the monomeric Eu(III)-labelled probes (expressed as the dissociation constant, Kd). The same assay was carried out with COL1, to estimate the selectivity for COL3 binding in respect to COL1. Potential unspecific binding effects associated with the assay were investigated by using two types of control experiments: (i) the scrambled versions of the Eu(III)-labelled probes were used as negative controls in TRF plate assays with immobilised collagen (either COL3 or COL1); and (ii) the collagen specific probes were assayed against elastin and bovine serum albumin (BSA) as control non-binding proteins. Briefly, increasing concentrations of the peptide (0.1–15 µM; 70 µL per well) were incubated in 96-well microplates pre-coated with the desired protein. Triplicate readings were taken per concentration and three independent experiments (plates) were used. After incubation of the peptide with the protein for one hour, the plates were washed with PBS to remove any free (unbound) peptide. […] The plates were then read using a luminescence plate reader. […]

COL3 [2] = biological target: T1, COL3; conditions: cited from earlier work
Text: (§1) The two peptides, DARKSEVQK (Collagen Binding Probe 1, CBP1) and TEFPLRMRDWLKN (CBP2), were identified from reported protein-protein interaction studies between collagen and other proteins[41],[43]. […] The TEFPLRMRDWLKN peptide is part of the secreted protein acidic and rich cysteine (SPARC) that binds to fibrillary collagens. The binding interaction between SPARC and collagens regulates collagen fibrillogenesis ...

[3] = test system: COL3-induced platelet aggregation; conditions: cited from earlier work
Text: as §1

Row | Compound | fractional occupancy (FO) at the highest concentration of probe (COL3 [1]) | binding affinity towards COL3 compared with COL1 (in words) (COL3 [2]) | effect on COL3-induced platelet aggregation (in words) [3]
1 | CC(C)[C@H](NC(=O)[C@H](CCC(=O)O)NC(=O)[C@H](CO)NC(=O)[C@H](CCCCN)NC(=O)[C@H](CCCNC(=N)N)NC(=O)[C@H](C)NC(=O)[C@H](CC(=O)O)NC(=O)CN1CCN(CC(=O)O)CCN(CC(=O)O)CCN(CC(=O)O)CC1)C(=O)N[C@@H](CCC(N)=O)C(=O)N[C@@H](CCCCN)C(=O)O [Eu-DOTAMA-CBP1] ({DOTA}-DARKSEVQK-OH) | 74% |  | 
2 | DARKSEVQK [CBP1] |  | higher binding affinity towards COL3 than COL1 | inhibit
